Key:
[1] = system: hPPAR alpha; test: Binding Assay (displacement of Radioligand from GST-hPPAR alpha); set-up: species or system human; details: 60 nM Radioligand
From the text: Bound radioactivity eluted in the column void volume and was quantitated by liquid scintillation counting.

[2] = system: PPAR alpha over PPAR gamma; test: Transfection assay, selectivity for PPAR alpha over PPAR gamma (GAL4-hPPAR alpha and GAL4-hPPAR gamma); type: cell-based, human; details: CV-1 cells
Method: Plasmids: GAL4-hPPAR alpha chimera and UAS-tk-SPAP reporters.
Transfection assay: SPAP reporter. CV-1 cells were plated in DME medium supplemented with 10% delipidated fetal calf serum at a density of 2.4×10^4 cells per well in a 96-well plate (Costar) 16-24 h before transfection. In general, 8.0 ng of reporter plasmid, 25.0 ng of β-galactosidase expression vector (pCH 110, Pharamacia), and 2.0 ng of GAL4-hPPAR alpha or GAL4-hPPAR gamma expression vector were mixed with carrier DNA (pBluescript, Stratagene) to a total of 80 ng of DNA per well in a volume of […] optiMEM I medium (Life Technologies). To this, a second mix, containing […] optiMEM I medium and […] of LIPOFECTAMINE™ (Life Technologies), was added. After 30 min. an additional […] of optiMEM I medium were added and the combined mix was then applied to the cells. […] Alternatively, alkaline phosphatse and β-galactosidase activities were measured separately using standard protocols. Briefly, cells were lysed by adding […] 0.5% Triton X-100 to the supernatant.

[3] = system: Zucker lean male rats; test: Diet-Induced Model of Dyslipidemia, Zucker lean male rats; type: in vivo, rat; details: males; for NEFA: before drug 0.72
From the text: (§1) Zucker lean male rats and Zucker fa/fa female rats were randomized into 3 treatment groups. The randomization was based on serum triglyceride concentration after three months on the TEKLAD high fat diet. Dosing with Example 5 or the appropriate vehicle, by oral gavage, began after 4 months of high fat feeding. Plasma glucose, lactate, serum insulin and lipid concentrations were obtained weekly, beginning on day 7 through 48 after the initiation of therapy. Metabolic data from each treatment group was collected weekly. Dexascan determinations of body mass composition obtained after 4 months on the high fat diet served as baseline. Changes in body mass composition due to therapy were determined by repeat measurements at the end of the study.
(§2) Treatment Group B Example 5 (0.1 mg/kg) dosed twice a day.
(§3) Treatment Group C Example 5 (0.3 mg/kg) dosed twice a day.

[4] = system: Zucker fa/fa female rats; test: Diet-Induced Model of Dyslipidemia, Zucker fa/fa female rats; type: in vivo, rat; details: females
From the text: as §1, §2, §3

With `CCCCCCCN(CCc1ccc(OC(C)(CC)C(=O)O)cc1)C(=O)Nc1ccc(F)cc1F` (centres unmarked) [Cold Radioligand, 2-(4-(2-(1-Heptyl-3-(2,4-difluorophenyl)ureido)ethyl)phenoxy)-2-methylbutanoic Acid] the “Bound radioactivity in presence of competitor” value ([1]; 10 μM competitor, 4° C., 2-3 hr, mean of triplicate, no competitor 140000) was 25000 dpm.

For `CC(C)(Sc1ccc(CCN(CCCCC2CCCCC2)C(=O)NC2CCCCC2)cc1)C(=O)O` [Example 1, 2-(4-(2-(1-(Cyclohexanebutyl)-3-cyclohexylureido)ethyl)phenylthio)-2-methylpropionic Acid], the “activity ratio, PPAR alpha over PPAR gamma” value (from here on “activity ratio, PPAR alpha”) [2] was “greater than 100”.

For `CC(C)(Sc1ccc(CCN(CCc2ccc(-c3ccccc3)cc2)C(=O)NC2CCCCC2)cc1)C(=O)O` [Example 2, 2-(4-(2-(1-(4-Biphenylethyl)-3-cyclohexylureido)ethyl)phenylthio)-2-methylpropionic Acid], the “activity ratio, PPAR alpha” value [2] was “greater than 100”.

For `CC(C)(Sc1ccc(CCN(Cc2ccc(-c3ccccc3C(F)(F)F)cc2Cl)C(=O)NC2CCCCC2)cc1)C(=O)O` [Example 3, 2-(4-(2-(1-(2-Chloro-4-(2-trifluoromethylphenyl)phenylmethyl)-3-(cyclohexyl)ureido)ethyl)phenylthio)-2-methylpropionic Acid], the “activity ratio, PPAR alpha” value [2] was “greater than 100”.

For `CCCCCCCN(CCc1ccc(SC(C)(C)C(=O)O)cc1)C(=O)Nc1ccc(F)cc1F` [Example 5, 2-(4-(2-(1-Heptyl-3-(2,4-difluorophenyl)ureido)ethyl)phenylthio)-2-methylpropionic Acid], the NEFA ([3]; 0.1 mg/kg oral gavage twice a day, Week 1, vehicle 0.85) was 0.73 m Eq/L, the Cholesterol ([3]; 0.1 mg/kg oral gavage twice a day, Week 1, before drug 221, vehicle 191) was 138 mg/dL and the “Body Weight” value ([3]; 0.1 mg/kg oral gavage twice a day, Week 1, before drug 636, vehicle 610) was 617 g. The Triglycerides ([3]; 0.1 mg/kg oral gavage twice a day, Week 1, before drug (after 4 months on high-fat diet) 828, vehicle 718) was 460 mg/dL, the NEFA ([3]; 0.1 mg/kg oral gavage twice a day, Week 4, vehicle 0.65) was 0.57 m Eq/L and the Cholesterol ([3]; 0.1 mg/kg oral gavage twice a day, Week 4, before drug 221, vehicle 224) was 189 mg/dL. For the same compound, the “Body Weight” value ([3]; 0.1 mg/kg oral gavage twice a day, Week 4, before drug 636, vehicle 610) was 592 g, the Triglycerides ([3]; 0.1 mg/kg oral gavage twice a day, Week 4, before drug 828, vehicle 741) was 467 mg/dL and the NEFA ([3]; 0.1 mg/kg oral gavage twice a day, Week 7, vehicle 0.60) was 0.58 m Eq/L. The Cholesterol ([3]; 0.1 mg/kg oral gavage twice a day, Week 7, before drug 221, vehicle 215) was 148 mg/dL, the “Body Weight” value ([3]; 0.1 mg/kg oral gavage twice a day, Week 7, before drug 636, vehicle 632) was 597 g and the Triglycerides ([3]; 0.1 mg/kg oral gavage twice a day, Week 7, before drug 828, vehicle 725) was 584 mg/dL. The NEFA ([3]; 0.3 mg/kg oral gavage twice a day, Week 1, vehicle 0.85) was 0.69 m Eq/L, the Cholesterol ([3]; 0.3 mg/kg oral gavage twice a day, Week 1, before drug 235, vehicle 191) was 138 mg/dL and the “Body Weight” value ([3]; 0.3 mg/kg oral gavage twice a day, Week 1, before drug 639, vehicle 610) was 608 g. For the same compound, the Triglycerides ([3]; 0.3 mg/kg oral gavage twice a day, Week 1, before drug 926, vehicle 718) was 527 mg/dL, the NEFA ([3]; 0.3 mg/kg oral gavage twice a day, Week 4, vehicle 0.65) was 0.47 m Eq/L and the Cholesterol ([3]; 0.3 mg/kg oral gavage twice a day, Week 4, before drug 235, vehicle 224) was 174 mg/dL. The “Body Weight” value ([3]; 0.3 mg/kg oral gavage twice a day, Week 4, before drug 639, vehicle 610) was 577 g, the Triglycerides ([3]; 0.3 mg/kg oral gavage twice a day, Week 4, before drug 926, vehicle 741) was 174 mg/dL and the NEFA ([3]; 0.3 mg/kg oral gavage twice a day, Week 7, vehicle 0.60) was 0.46 m Eq/L. For the same compound, the Cholesterol ([3]; 0.3 mg/kg oral gavage twice a day, Week 7, before drug 235, vehicle 215) was 151 mg/dL, the “Body Weight” value ([3]; 0.3 mg/kg oral gavage twice a day, Week 7, before drug 639, vehicle 632) was 565 g and the Triglycerides ([3]; 0.3 mg/kg oral gavage twice a day, Week 7, before drug 926, vehicle 725) was 219 mg/dL. The NEFA ([4]; 0.1 mg/kg oral gavage twice a day, Week 1, before drug 11.15, vehicle 6.78) was 2.47 m Eq/L, the “Body Weight” value ([4]; 0.1 mg/kg oral gavage twice a day, Week 1, before drug 665, vehicle 684) was 721 g and the Cholesterol ([4]; 0.1 mg/kg oral gavage twice a day, Week 1, before drug 1648, vehicle 1186) was 610 mg/dL. For the same compound, the Triglycerides ([4]; 0.1 mg/kg oral gavage twice a day, Week 1, before drug (after 4 months on high-fat diet) 9310, vehicle 5357) was 2717 mg/dL, the NEFA ([4]; 0.1 mg/kg oral gavage twice a day, Week 4, before drug 11.15, vehicle 2.79) was 1.32 m Eq/L and the “Body Weight” value ([4]; 0.1 mg/kg oral gavage twice a day, Week 4, before drug 665, vehicle 700) was 723 g. It also gave a Cholesterol ([4]; 0.1 mg/kg oral gavage twice a day, Week 4, before drug 1648, vehicle 1319) of 733 mg/dL, a Triglycerides ([4]; 0.1 mg/kg oral gavage twice a day, Week 4, before drug 9310, vehicle 10414) of 3913 mg/dL and an NEFA ([4]; 0.1 mg/kg oral gavage twice a day, Week 7, before drug 11.15, vehicle 3.77) of 1.75 m Eq/L. For the same compound, the “Body Weight” value ([4]; 0.1 mg/kg oral gavage twice a day, Week 7, before drug 665, vehicle 706) was 710 g, the Cholesterol ([4]; 0.1 mg/kg oral gavage twice a day, Week 7, before drug 1648, vehicle 923) was 632 mg/dL and the Triglycerides ([4]; 0.1 mg/kg oral gavage twice a day, Week 7, before drug 9310, vehicle 5465) was 2627 mg/dL. The NEFA ([4]; 0.3 mg/kg oral gavage twice a day, Week 1, before drug 13.06, vehicle 6.78) was 1.45 m Eq/L, the “Body Weight” value ([4]; 0.3 mg/kg oral gavage twice a day, Week 1, before drug 645, vehicle 684) was 673 g and the Cholesterol ([4]; 0.3 mg/kg oral gavage twice a day, Week 1, before drug 1908, vehicle 1186) was 350 mg/dL. The Triglycerides ([4]; 0.3 mg/kg oral gavage twice a day, Week 1, before drug 9190, vehicle 5357) was 1627 mg/dL, the NEFA ([4]; 0.3 mg/kg oral gavage twice a day, Week 4, before drug 13.06, vehicle 2.79) was 0.59 m Eq/L and the “Body Weight” value ([4]; 0.3 mg/kg oral gavage twice a day, Week 4, before drug 645, vehicle 700) was 643 g. It also gave a Cholesterol ([4]; 0.3 mg/kg oral gavage twice a day, Week 4, before drug 1908, vehicle 1319) of 404 mg/dL, a Triglycerides ([4]; 0.3 mg/kg oral gavage twice a day, Week 4, before drug 9190, vehicle 10414) of 687 mg/dL and an NEFA ([4]; 0.3 mg/kg oral gavage twice a day, Week 7, before drug 13.06, vehicle 3.77) of 0.53 m Eq/L. The “Body Weight” value ([4]; 0.3 mg/kg oral gavage twice a day, Week 7, before drug 645, vehicle 706) was 582 g, the Cholesterol ([4]; 0.3 mg/kg oral gavage twice a day, Week 7, before drug 1908, vehicle 923) was 422 mg/dL and the Triglycerides ([4]; 0.3 mg/kg oral gavage twice a day, Week 7, before drug 9190, vehicle 5465) was 538 mg/dL.

`[3H]C(CCCC)C([3H])CN(CCc1ccc(OC(C)(CC)C(=O)O)cc1)C(=O)Nc1ccc(F)cc1F` (centres unmarked) [Radioligand, 2-(4-(2-(2,3-Ditritio-1-heptyl-3-(2,4-difluorophenyl)ureido)ethyl)phenoxy)-2-methylbutanoic Acid] was tested, and the “Specific Binding” value ([1]; no competitor minus 10 μM Cold Radioligand) was 115000 dpm.

Source: US6306854A, “Chemical compounds” (Glaxosmithkline, priority 1998, dated 2001)
